We go through one molecule from patent publication EP0722725A1, “VASCULAR SMOOTH MUSCLE CELL MIGRATION INHIBITOR” (TEIJIN LIMITED, priority 1994, dated 1996).

Data set [1] relates to vascular smooth muscle cell derived from a human normal aorta. Briefly: Measurement of the inhibition activity on cell migration (PDGF-mediated, Transwell Chamber). The note with it: concentration of 10^-7M; migration mediated by human PDGF 10 ng/ml, 6 hours; compared with the cell migration counts where no test compound was added; read-out: inhibition activities on cell migration. The class given is cell-based.
Method: A Transwell Chamber (Costar Co., registered trademark) was used to measure the inhibitory activity. The chamber is divided into a lower and a upper chamber with an 8-µm pore size membrane filter (PVP-free polycarbonate filter, Nucleopore Co., registered trademark), and the filter was pretreated on its lower surface with 5 µg of rat tail collagen type 1 (Becton Dickinson Co.). To the upper chamber was added 100 µl of a 1.5 x 10^6/ml suspension of cells in a mixed solution of DMEM (supplied by Flow Laboratories Co.) and 0.1% BSA (supplied by Nakarai Tesque Co.), and a solution of human PDGF (supplied by Becton Dickinson Co.), which is prepared by diluting with the same mixed solution to giving the final concentration of 10 ng/ml, is filled in the lower chamber (600 µl). […] After the chamber was allowed to stand under 5%-CO2 atmosphere at 37°C For 6 hours, the filter was taken out. […] After cells adhered on the upper surface of the filter were removed with a cotton swab, the cells migrated to the lower surface were counted under a high-magnifying-power microscope (x200, x400) in terms of cell nuclei. Usually, five fields were counted per filter. Cell migration was expressed by the average cell count of the five fields ± the standard deviation. The significant difference was examined by Student's two-tailed t-test.

The next data set can be described thus: Acute toxicity. The note with it: no method, species or dose given. Type of data set: in vivo.

Consider `CCCC[C@H](C)C[C@H](O)/C=C/[C@@H]1[C@H]2CC(CCc3ccc(C(=O)OC)cc3)=C[C@H]2C[C@H]1O` [compound 5e], for which, in data set [1], the inhibition at 0.1 µM is 13.9%. For the same molecule, the acute toxicity result in the data set “Acute toxicity” was “neither of the compounds 5e and 6b had problem with acute toxicity”.
